Measured values as given in the OligoGym collection.
Several values for one entry are separate records, joined by “and”; a condition that tells them apart may be missing. Equal entries are not always repeated. After the bases stand the sugars from the 5' end (letter, count) and the backbone: PS all phosphorothioate, else s phosphorothioate and o phosphodiester by linkage. Methylation of C is not given here. e = 2'-O-(2-methoxyethyl) (MOE); k = constrained ethyl (cEt); d = 2'-deoxy (DNA)

Target: IRF4
Conditions: ASO

Sequence ATAAAGGACCCCGCCA (sugars k3 d10 k3, PS) has a target mRNA inhibition (SK-MEL-28, 4 µM) of 18%.

ATAACATGAGAGTGTT (sugars k3 d10 k3, PS) was tested, and the target mRNA inhibition (MM.1R, 1 µM) was -17%.

ATAACGAGGTGCCTTA (sugars k3 d10 k3, PS) was tested, and the target mRNA inhibition (SK-MEL-28, 4 µM) was 13%.

In the case of ATAACGGTGTTTCAGA (sugars k3 d10 k3, PS), the target mRNA inhibition (SK-MEL-28, 4 µM) is reported as 47%.

Work on ATAAGAAGCACTGGCA (sugars k3 d10 k3, PS) yielded a target mRNA inhibition (SK-MEL-28, 4 µM) of 51%.

Sequence ATAAGATCCCACGAAG (sugars k3 d10 k3, PS) has a target mRNA inhibition (SK-MEL-28, 4 µM) of -42%.

For ATACATCACTGCAGTT (sugars k3 d10 k3, PS), the target mRNA inhibition (SK-MEL-28, 4 µM) was 36%.

ATACATTCACACTGCC (sugars k3 d10 k3, PS) showed a target mRNA inhibition (SK-MEL-28, 4 µM) of 45%.

ATAGCTGTTTATTTCC (sugars k4 d8 k4, PS) was tested, and the target mRNA inhibition (MM.1R, 0.074 µM) was 7%, the target mRNA inhibition (MM.1R, 0.222 µM) was 6% and the target mRNA inhibition (MM.1R, 0.666 µM) was 11%. The target mRNA inhibition (MM.1R, 2 µM) was 32%, the target mRNA inhibition (SK-MEL-28, 0.185 µM) was -2% and -10% and -3% and the target mRNA inhibition (SK-MEL-28, 4 µM) was 59%. For the same sequence, the target mRNA inhibition (SK-MEL-28, 15 µM) was 81% and 79% and 91%.

In the case of ATAGTAGGTAAGATCT (sugars k3 d10 k3, PS), the target mRNA inhibition (SK-MEL-28, 4 µM) is reported as -13%.

ATAGTTGTCTGGCTAG (sugars k3 d10 k3, PS) showed a target mRNA inhibition (SK-MEL-28, 4 µM) of 52%.

Work on ATATACATTGAGGCAT (sugars k3 d10 k3, PS) yielded a target mRNA inhibition (MM.1R, 1 µM) of -31%.

ATATGACGACTTAAGC (sugars k3 d10 k3, PS) gave a target mRNA inhibition (SK-MEL-28, 4 µM) of 38%.

For ATCACGAGGTTGCCGA (sugars k3 d10 k3, PS), the target mRNA inhibition (SK-MEL-28, 4 µM) was 60%.

Sequence ATCAGATACACACCCT (sugars k3 d10 k3, PS) has a target mRNA inhibition (SK-MEL-28, 4 µM) of -8%.

ATCAGATGATGTCTAG (sugars k3 d10 k3, PS) gave a target mRNA inhibition (SK-MEL-28, 4 µM) of -3%.

ATCCAGAGGACCACGC (sugars k3 d10 k3, PS) showed a target mRNA inhibition (SK-MEL-28, 4 µM) of 19%.

Work on ATCCTGTAGTATGAGA (sugars k3 d10 k3, PS) yielded a target mRNA inhibition (SK-MEL-28, 4 µM) of 45%.

In the case of ATCCTTAATTATGCAG (sugars k3 d10 k3, PS), the target mRNA inhibition (SK-MEL-28, 4 µM) is reported as 39%.

ATCGAGATCAGTCTCA (sugars k3 d10 k3, PS) gave a target mRNA inhibition (SK-MEL-28, 4 µM) of 76%.

Work on ATCGAGCGGTGAAACT (sugars k3 d10 k3, PS) yielded a target mRNA inhibition (SK-MEL-28, 4 µM) of 29%.

Sequence ATCTACTCCAGACCCC (sugars k3 d10 k3, PS) has a target mRNA inhibition (SK-MEL-28, 4 µM) of 27%.

Sequence ATCTATAAGATGTATA (sugars k4 d8 k4, PS) has a target mRNA inhibition (SK-MEL-28, 4 µM) of 36%.

Sequence ATCTGAATTGTTACTA (sugars k3 d10 k3, PS) has a target mRNA inhibition (SK-MEL-28, 4 µM) of 12%.

Sequence ATGAGATATTCCTCTC (sugars k3 d10 k3, PS) has a target mRNA inhibition (SK-MEL-28, 4 µM) of 32%.

ATGAGTCGGTCACTTG (sugars k3 d10 k3, PS) was tested, and the target mRNA inhibition (SK-MEL-28, 4 µM) was 78% and 72%.

ATGATATTAGAGACTG (sugars k3 d10 k3, PS) gave a target mRNA inhibition (SK-MEL-28, 4 µM) of 74%.

Sequence ATGGAACAGTAACTTG (sugars k3 d10 k3, PS) has a target mRNA inhibition (MM.1R, 1 µM) of 3%.

ATGGCAGTGGAGCTCC (sugars k3 d10 k3, PS) gave a target mRNA inhibition (SK-MEL-28, 4 µM) of 56%.

Work on “ATGTGATAGCTGAGCT (sugars kkddddddddddkeke, PS)” yielded a target mRNA inhibition (MM.1R, 1 µM) of 4%.

With “ATGTGATAGCTGAGCT (sugars kkdddddddddkekek, PS)” the target mRNA inhibition (MM.1R, 1 µM) was 24%.

For “ATGTGTATTACTCTTA (sugars kdddddddddkekeke, PS)”, the target mRNA inhibition (MM.1R, 1 µM) was 36% and 49%.

In the case of “ATGTGTATTACTCTTA (sugars kkddddddddddkeke, PS)”, the target mRNA inhibition (MM.1R, 1 µM) is reported as 47% and 48%.

For “ATGTGTATTACTCTTA (sugars kkdddddddddkekek, PS)”, the target mRNA inhibition (MM.1R, 1 µM) was 54% and 49%.

With “ATGTTAGCCAATTCCT (sugars k2 d9 e3 k2, PS)” the target mRNA inhibition (MM.1R, 1 µM) was 17% and 6%.

For “ATGTTAGCCAATTCCT (sugars kdddddddddkekeke, PS)”, the target mRNA inhibition (MM.1R, 1 µM) was 0% and 5%.

With “ATGTTAGCCAATTCCT (sugars kkddddddddddkeke, PS)” the target mRNA inhibition (MM.1R, 1 µM) was 20% and 15%.

ATTAATTCTCCTATGC (sugars k3 d10 k3, PS) gave a target mRNA inhibition (SK-MEL-28, 4 µM) of 15%.

ATTCATTTTATGGACC (sugars k3 d10 k3, PS) showed a target mRNA inhibition (SK-MEL-28, 4 µM) of 42%.

For ATTCCAACAGGCGGAC (sugars k3 d10 k3, PS), the target mRNA inhibition (MM.1R, 1 µM) was 2%.

With ATTTAAGTCATGTGTC (sugars k3 d10 k3, PS) the target mRNA inhibition (MM.1R, 1 µM) was 17%.

In the case of ATTTACACCGTTGCTC (sugars k3 d10 k3, PS), the target mRNA inhibition (MM.1R, 1 µM) is reported as 13%.

ATTTACTGTTACCGAT (sugars k3 d10 k3, PS) showed a target mRNA inhibition (SK-MEL-28, 4 µM) of 29%.

ATTTCACTGTAGGATT (sugars k3 d10 k3, PS) was tested, and the target mRNA inhibition (SK-MEL-28, 4 µM) was 38%.

ATTTTATGGACCACGC (sugars k3 d10 k3, PS) gave a target mRNA inhibition (SK-MEL-28, 4 µM) of 49%.

In the case of ATTTTCACAAGCTGGG (sugars k3 d10 k3, PS), the target mRNA inhibition (SK-MEL-28, 4 µM) is reported as 39%.

In the case of CAAAAACTTGGGTCAC (sugars k3 d10 k3, PS), the target mRNA inhibition (SK-MEL-28, 4 µM) is reported as 20%.

CAAAAATGTCCCATCC (sugars k3 d10 k3, PS) gave a target mRNA inhibition (SK-MEL-28, 4 µM) of 19%.

Work on CAAAACTACTATTGTG (sugars k3 d10 k3, PS) yielded a target mRNA inhibition (SK-MEL-28, 4 µM) of 23%.

In the case of CAAACCTTAAGCTATT (sugars k3 d10 k3, PS), the target mRNA inhibition (MM.1R, 0.0625 µM) is reported as -13%, the target mRNA inhibition (MM.1R, 0.25 µM) is reported as -5% and the target mRNA inhibition (MM.1R, 4 µM) is reported as 6%.

Sequence CAAACTCCTCAGGGAA (sugars k4 d8 k4, PS) has a target mRNA inhibition (SK-MEL-28, 4 µM) of 17%.

With CAAAGAGGGTCACAGG (sugars k3 d10 k3, PS) the target mRNA inhibition (SK-MEL-28, 4 µM) was 63%.

In the case of CAAATTCAGGAGAGCC (sugars k3 d10 k3, PS), the target mRNA inhibition (SK-MEL-28, 4 µM) is reported as 19%.

Work on CAAATTCCCGGAGGAA (sugars k3 d10 k3, PS) yielded a target mRNA inhibition (SK-MEL-28, 4 µM) of 5%.

Sequence CAACAGAGCTGAGAGT (sugars k3 d10 k3, PS) has a target mRNA inhibition (SK-MEL-28, 4 µM) of 20%.

With CAACAGTGCCAGAGCA (sugars k3 d10 k3, PS) the target mRNA inhibition (SK-MEL-28, 4 µM) was 11%.

With CAACAGTTCAAGTATT (sugars k3 d10 k3, PS) the target mRNA inhibition (SK-MEL-28, 4 µM) was 35%.

Work on CAAGACCCCGTATCCC (sugars k3 d10 k3, PS) yielded a target mRNA inhibition (SK-MEL-28, 4 µM) of 44%.

For “CAAGCAGTGATGTCAG (sugars kkdddddddddkdkdk, PS)”, the target mRNA inhibition (MM.1R, 1 µM) was 46% and 49%.

With “CAAGCAGTGATGTCAG (sugars kkdddddddddkekek, PS)” the target mRNA inhibition (MM.1R, 1 µM) was 51% and 52%.

CAAGCATAAAAGGTTC (sugars k3 d10 k3, PS) gave a target mRNA inhibition (SK-MEL-28, 4 µM) of 29%.

For CAAGTAATTTTAAGGC (sugars k3 d10 k3, PS), the target mRNA inhibition (SK-MEL-28, 4 µM) was 41%.

For “CAAGTGTCTAAAGTCC (sugars kddddddddddkekek, PS)”, the target mRNA inhibition (MM.1R, 1 µM) was 7% and 12%.

With “CAAGTGTCTAAAGTCC (sugars kdddddddddkekeke, PS)” the target mRNA inhibition (MM.1R, 1 µM) was 11% and 10%.

CAATAATCTCCCAGCA (sugars k3 d10 k3, PS) showed a target mRNA inhibition (SK-MEL-28, 4 µM) of 37%.

CAATATGCTTCCAACC (sugars k3 d10 k3, PS) was tested, and the target mRNA inhibition (SK-MEL-28, 4 µM) was -15%.

CAATTAGCTCTTCTAT (sugars k3 d10 k3, PS) was tested, and the target mRNA inhibition (SK-MEL-28, 4 µM) was 14%.

With CAATTTACATCTTACT (sugars k3 d10 k3, PS) the target mRNA inhibition (SK-MEL-28, 4 µM) was 21%.

In the case of CACAACTGCAGTTTGA (sugars k3 d10 k3, PS), the target mRNA inhibition (SK-MEL-28, 4 µM) is reported as 14%.

CACAAGCAGTGATGTC (sugars k3 d10 k3, PS) was tested, and the target mRNA inhibition (SK-MEL-28, 4 µM) was 60%.

In the case of CACATAACTCAGGCAA (sugars k3 d10 k3, PS), the target mRNA inhibition (SK-MEL-28, 4 µM) is reported as 37%.

CACATCAATGTTTTAG (sugars k3 d10 k3, PS) was tested, and the target mRNA inhibition (H929, 0.04 µM) was 14%, the target mRNA inhibition (KMS11, 0.2 µM) was 61% and 78% and the target mRNA inhibition (MM.1R, 0.0625 µM) was 48%. For the same sequence, the target mRNA inhibition (MM.1R, 0.25 µM) was 62%, the target mRNA inhibition (MM.1R, 1 µM) was 66% and 75% and 72% and the target mRNA inhibition (MM.1R, 4 µM) was 89%.

With CACATTAAAGGGTAAG (sugars k3 d10 k3, PS) the target mRNA inhibition (SK-MEL-28, 4 µM) was -1%.

For CACCAGGAAACCGCTG (sugars k3 d10 k3, PS), the target mRNA inhibition (SK-MEL-28, 4 µM) was 15%.

CACCCACACAAGTCTT (sugars k4 d8 k4, PS) gave a target mRNA inhibition (SK-MEL-28, 4 µM) of 14%.

CACGAAACACAGTCTG (sugars k3 d10 k3, PS) was tested, and the target mRNA inhibition (SK-MEL-28, 4 µM) was 52%.
